The record followed here is US9273058B2 (BRISTOL-MYERS SQUIBB COMPANY, priority 2013, dated 2016).

The target in one assay is CK1δ (Homo sapiens, UniProt P48730). The experiment in a line: CK1δ kinase assay (Caliper LabChip electrophoretic separation of fluoresceinated peptide substrate and product). It counts as biochemical. As to conditions: 200 pM CK1δ, 50 μM ATP, 1.5 μM peptide, 22 hours at room temperature. Put shortly: (§1)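 IC50 values were obtained by non-linear regression from eleven-concentration titrations. The kinase reactions were incubated for 22 hours at room temperature before termination with 35 mM EDTA.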
CK1δ, sequence (P48730 whole entry): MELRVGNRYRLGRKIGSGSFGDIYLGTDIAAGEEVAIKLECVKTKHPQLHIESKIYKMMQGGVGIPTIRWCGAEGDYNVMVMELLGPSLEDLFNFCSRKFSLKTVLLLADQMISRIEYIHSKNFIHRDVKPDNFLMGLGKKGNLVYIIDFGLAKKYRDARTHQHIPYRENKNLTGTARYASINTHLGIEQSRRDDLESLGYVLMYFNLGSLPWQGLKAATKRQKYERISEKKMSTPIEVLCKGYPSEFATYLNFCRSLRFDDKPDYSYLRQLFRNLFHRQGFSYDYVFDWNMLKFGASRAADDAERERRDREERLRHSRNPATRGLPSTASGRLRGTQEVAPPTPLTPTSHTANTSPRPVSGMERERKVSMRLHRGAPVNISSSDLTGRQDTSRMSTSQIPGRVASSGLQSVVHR

The next assay concerns the target CK1ε (Homo sapiens, UniProt P49674). The experiment in a line: CK1ε kinase assay (Caliper LabChip electrophoretic separation of fluoresceinated peptide substrate and product). It counts as biochemical. As to conditions: 200 pM CK1ε, 50 μM ATP, 1.5 μM peptide, 22 hours at room temperature. An outline of the steps:
as §1

Where two headings read alike, the source gives them in different places.

CK1ε, sequence (P49674 whole entry): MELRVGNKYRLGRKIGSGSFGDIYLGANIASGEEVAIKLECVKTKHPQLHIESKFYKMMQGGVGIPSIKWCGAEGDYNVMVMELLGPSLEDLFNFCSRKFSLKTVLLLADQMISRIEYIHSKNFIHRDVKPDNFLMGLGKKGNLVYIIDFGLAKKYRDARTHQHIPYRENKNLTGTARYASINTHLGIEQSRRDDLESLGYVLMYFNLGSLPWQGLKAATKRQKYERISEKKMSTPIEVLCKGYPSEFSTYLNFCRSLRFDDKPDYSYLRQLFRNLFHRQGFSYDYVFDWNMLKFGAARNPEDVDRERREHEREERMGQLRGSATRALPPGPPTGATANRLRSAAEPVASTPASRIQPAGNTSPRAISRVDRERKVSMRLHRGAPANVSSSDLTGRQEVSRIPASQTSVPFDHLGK

Take `N#Cc1ccc(C2(NC(=O)N3CCn4nc(-c5ccc(F)c(Cl)c5)c(C(N)=O)c4C3)CC(F)(F)C2)cc1` [Compound 314, 2-(3-Chloro-4-fluorophenyl)-N^5-(1-(4-cyanophenyl)-3,3-difluorocyclobutyl)-6,7-dihydropyrazolo[1,5-a]pyrazine-3,5(4H)-dicarboxamide]: the IC50 on CK1δ (read-out: CK1δ IC50 range) and at CK1ε (read-out: CK1ε IC50 range) was 0.01 to 10 nM each time.
In the case of `CC(C)(C)C1CN(C(=O)NC2CC(F)(F)C2)Cc2c(C(N)=O)c(-c3ccc(F)c(Cl)c3)nn21` (single isomer, unassigned) [Compound A122, 7-(tert-Butyl)-2-(3-chloro-4-fluorophenyl)-N5-(3,3-difluorocyclobutyl)-6,7-dihydropyrazolo[1,5-a]pyrazine-3,5(4H)-dicarboxamide], the IC50 at CK1δ (read-out: CK1δ IC50 range) and on CK1ε (read-out: CK1ε IC50 range) was 0.01 to 10 nM throughout.
With `CC1(CNC(=O)N2CCn3nc(-c4cccc(Cl)c4)c(C(N)=O)c3C2)CC(F)(F)C1` [Compound 230, 2-(3-Chlorophenyl)-N^5-((3,3-difluoro-1-methylcyclobutyl)methyl)-6,7-dihydropyrazolo[1,5-a] pyrazine-3,5(4H)-dicarboxamide], the IC50 at CK1δ (read-out: CK1δ IC50 range) and at CK1ε (read-out: CK1ε IC50 range) was 0.01 to 10 nM each time.
Regarding `NC(=O)c1c(-c2ccc(Cl)c(Cl)c2)nn2c1CN(C(=O)NC1(CF)CC(F)(F)C1)CC2` [compound 303], the IC50 on CK1δ (read-out: CK1δ IC50 range) and at CK1ε (read-out: CK1ε IC50 range) was 0.01 to 10 nM each time.
Take `CC(C)(NC(=O)N1CCn2nc(-c3cccc(Cl)c3)c(C(N)=O)c2C1)C1CC(F)(F)C1` [Compound 227, 2-(3-Chlorophenyl)-N^5-(2-(3,3-difluorocyclobutyl)propan-2-yl)-6,7-dihydropyrazolo[1,5-a] pyrazine-3,5(4H)-dicarboxamide]: the IC50 at CK1δ (read-out: CK1δ IC50 range) and on CK1ε (read-out: CK1ε IC50 range) was 0.01 to 10 nM throughout.
In the case of `CC1CC(NC(=O)N2CCn3nc(-c4ccc(Cl)c(Cl)c4)c(C(N)=O)c3C2)C1` (single isomer, unassigned) [Compound 249, 2-(3,4-Dichlorophenyl)-N^5-(3-methylcyclobutyl)-6,7-dihydropyrazolo[1,5-a]pyrazine-3,5(4H)-dicarboxamide], the IC50 on CK1δ (read-out: CK1δ IC50 range) and at CK1ε (read-out: CK1ε IC50 range) was 0.01 to 10 nM each time.
Consider `CC(C)(NC(=O)N1CCn2nc(-c3ccc(F)c(Cl)c3)c(C(N)=O)c2C1)C1CC(F)(F)C1` [Compound 226, 2-(3-Chloro-4-fluorophenyl)-N^5-(2-(3,3-difluorocyclobutyl)propan-2-yl)-6,7-dihydropyrazolo[1,5-a]pyrazine-3,5(4H)-dicarboxamide], for which the IC50 at CK1δ (read-out: CK1δ IC50 range) and at CK1ε (read-out: CK1ε IC50 range) was 0.01 to 10 nM throughout.
Turning to `NC(=O)c1c(-c2cccc(Cl)c2)nn2c1CN(C(=O)N[C@H]1C[C@@H](F)C1)CC2` [Compound 176, 2-(3-Chlorophenyl)-N^5-((1s,3s)-3-fluorocyclobutyl)-6,7-dihydropyrazolo[1,5-a] pyrazine-3,5(4H)-dicarboxamide], the IC50 on CK1δ (read-out: CK1δ IC50 range) and on CK1ε (read-out: CK1ε IC50 range) was 0.01 to 10 nM each time.
Turning to `CC(C)(C)NC(=O)N1CCn2nc(-c3cccc(OC(F)(F)F)c3)c(C(N)=O)c2C1` [Compound 138, N^5-(tert-Butyl)-2-(3-(trifluoromethoxy)phenyl)-6,7-dihydropyrazolo[1,5-a] pyrazine-3,5(4H)-dicarboxamide], the IC50 on CK1δ (read-out: CK1δ IC50 range) and on CK1ε (read-out: CK1ε IC50 range) was 100 to 2000 nM throughout.
In the case of `COCC(C)(C)NC(=O)N1CCn2nc(-c3cccc(Cl)c3)c(C(N)=O)c2C1` [Compound A47, 2-(3-Chlorophenyl)-N^5-(1-methoxy-2-methylpropan-2-yl)-6,7-dihydropyrazolo[1,5-a] pyrazine-3,5(4H)-dicarboxamide], the IC50 at CK1δ (read-out: CK1δ IC50 range) and at CK1ε (read-out: CK1ε IC50 range) was 0.01 to 10 nM throughout.
For the compound `CC(C)(C)NC(=O)N1CCn2nc(-c3ccc(F)c(Cl)c3)c(C(N)=O)c2C1` [Compound 104], the IC50 on CK1δ (read-out: CK1δ) was 0.7 nM; at CK1δ (read-out: CK1δ IC50 range), 0.01 to 10 nM; on CK1ε (read-out: CK1ε), 1.3 nM; on CK1ε (read-out: CK1ε IC50 range) it was 0.01 to 10 nM.
With `NC(=O)c1c(-c2cccc(Cl)c2)nn2c1CN(C(=O)NC1(COC(F)F)CCC1)CC2` [Compound 225, 2-(3-Chlorophenyl)-N^5-(1-((difluoromethoxy)methyl)cyclobutyl)-6,7-dihydropyrazolo[1,5-a] pyrazine-3,5(4H)-dicarboxamide], the IC50 on CK1δ (read-out: CK1δ IC50 range) and at CK1ε (read-out: CK1ε IC50 range) was 0.01 to 10 nM in each case.
Take `CS(=O)(=O)[C@H]1C[C@@H](NC(=O)N2CCn3nc(-c4ccc(Cl)c(Cl)c4)c(C(N)=O)c3C2)C1` [Compound 274, 2-(3,4-Dichlorophenyl)-N^5-((1s,3s)-3-(methylsulfonyl)cyclobutyl)-6,7-dihydropyrazolo[1,5-a] pyrazine-3,5(4H)-dicarboxamide]: the IC50 on CK1δ (read-out: CK1δ IC50 range) and at CK1ε (read-out: CK1ε IC50 range) was 0.01 to 10 nM throughout.
In the case of `CC1CN(C(=O)NC(C)(C)C)Cc2c(C(N)=O)c(-c3cccc(F)c3)nn21` (single isomer, unassigned) [Compound A108, N^5-(tert-Butyl)-2-(3-fluorophenyl)-7-methyl-6,7-dihydropyrazolo[1,5-a]pyrazine-3,5(4H)-dicarboxamide], the IC50 at CK1δ (read-out: CK1δ IC50 range) and on CK1ε (read-out: CK1ε IC50 range) was 10 to 100 nM each time.
Turning to `NC(=O)c1c(-c2cccc(Cl)c2)nn2c1CN(C(=O)NCC1CC(F)(F)C1)CC2` [Compound 179, 2-(3-Chlorophenyl)-N^5-((3,3-difluorocyclobutyl)methyl)-6,7-dihydropyrazolo[1,5-a]pyrazine-3,5(4H)-dicarboxamide], the IC50 on CK1δ (read-out: CK1δ IC50 range) and at CK1ε (read-out: CK1ε IC50 range) was 0.01 to 10 nM each time.
On to `NC(=O)c1c(-c2ccc(F)c(Cl)c2)nn2c1CN(C(=O)NC1(c3ccc(F)cc3)CC(F)(F)C1)CC2` [Compound 308, 2-(3-Chloro-4-fluorophenyl)-N^5-(3,3-difluoro-1-(4-fluorophenyl)cyclobutyl)-6,7-dihydropyrazolo[1,5-a]pyrazine-3,5(4H)-dicarboxamide], for which the IC50 on CK1δ (read-out: CK1δ IC50 range) and on CK1ε (read-out: CK1ε IC50 range) was 0.01 to 10 nM each time.
For the compound `NC(=O)c1c(-c2cccc(Cl)c2)nn2c1CN(C(=O)NC13CCCC(CCC1)C3)CC2` [Compound A84, N^5-((1r,5r)-Bicyclo[3.3.1]nonan-1-yl)-2-(3-chlorophenyl)-6,7-dihydropyrazolo[1,5-a]pyrazine-3,5(4H)-dicarboxamide], the IC50 at CK1δ (read-out: CK1δ IC50 range) and on CK1ε (read-out: CK1ε IC50 range) was 0.01 to 10 nM throughout.
As for `CC1(NC(=O)N2CCn3nc(-c4ccc(F)c(Cl)c4)c(C(N)=O)c3C2)CC2(C1)CC2(F)F` (single isomer, unassigned) [Compound 327, 2-(3-Chloro-4-fluorophenyl)-N5-(1,1-difluoro-5-methylspiro[2.3]hexan-5-yl)-6,7-dihydropyrazolo[1,5-a]pyrazine-3,5(4H)-dicarboxamide], the IC50 at CK1δ (read-out: CK1δ IC50 range) and at CK1ε (read-out: CK1ε IC50 range) was 0.01 to 10 nM each time.
For `COC12CCC(NC(=O)N3CCn4nc(-c5cccc(Cl)c5)c(C(N)=O)c4C3)(CC1)CC2` [Compound A80, 2-(3-Chlorophenyl)-N^5-(4-methoxybicyclo[2.2.2]octan-1-yl)-6,7-dihydropyrazolo[1,5-a]pyrazine-3,5(4H)-dicarboxamide], the IC50 at CK1δ (read-out: CK1δ IC50 range) and at CK1ε (read-out: CK1ε IC50 range) was 0.01 to 10 nM each time.
For the compound `CC1CC(NC(=O)N2CCn3nc(-c4ccc(F)c(Cl)c4)c(C(N)=O)c3C2)C1` (single isomer, unassigned) [Compound 246, 2-(3-Chloro-4-fluorophenyl)-N^5-(3-methylcyclobutyl)-6,7-dihydropyrazolo[1,5-a]pyrazine-3,5(4H)-dicarboxamide], the IC50 at CK1δ (read-out: CK1δ IC50 range) and at CK1ε (read-out: CK1ε IC50 range) was 0.01 to 10 nM in each case.
As for `CC(F)(F)C(C)(C)NC(=O)N1CCn2nc(-c3ccc(F)c(Cl)c3)c(C(N)=O)c2C1` [Compound 188, 2-(3-Chloro-4-fluorophenyl)-N^5-(3,3-difluoro-2-methylbutan-2-yl)-6,7-dihydropyrazolo[1,5-a] pyrazine-3,5(4H)-dicarboxamide], the IC50 at CK1δ (read-out: CK1δ IC50 range) and at CK1ε (read-out: CK1ε IC50 range) was 0.01 to 10 nM each time.
Consider `N#CC1(NC(=O)N2CCn3nc(-c4ccc(Cl)c(Cl)c4)c(C(N)=O)c3C2)CCOC1` (stereo not drawn) [compound 335], for which the IC50 at CK1δ (read-out: CK1δ IC50 range) and at CK1ε (read-out: CK1ε IC50 range) was 0.01 to 10 nM each time.
In the case of `CC(C)(C)NC(=O)N1CCn2nc(-c3cc(Cl)cc(C#N)c3)c(C(N)=O)c2C1` [Compound 154, N^5-(tert-Butyl)-2-(3-chloro-5-cyanophenyl)-6,7-dihydropyrazolo[1,5-a] pyrazine-3,5(4H)-dicarboxamide], the IC50 is 24.3 nM on CK1δ (read-out: CK1δ), 10 to 100 nM at CK1δ (read-out: CK1δ IC50 range), 27.7 nM on CK1ε (read-out: CK1ε) and 10 to 100 nM on CK1ε (read-out: CK1ε IC50 range).
In the case of `NC(=O)c1c(-c2cccc(F)c2)nn2c1CN(C(=O)NC1CCCCC1)CC2` [Compound 6, N^5-Cyclohexyl-2-(3-fluorophenyl)-6,7-dihydropyrazolo[1,5-a]pyrazine-3,5(4H)-dicarboxamide], the IC50 is 2.4 nM at CK1δ (read-out: CK1δ), 0.01 to 10 nM on CK1δ (read-out: CK1δ IC50 range), 7.2 nM on CK1ε (read-out: CK1ε) and 0.01 to 10 nM at CK1ε (read-out: CK1ε IC50 range).
`CC(C)(C)NC(=O)N1Cc2c(C(N)=O)c(-c3ccc(F)c(Cl)c3)nn2CC1C(F)(F)F` (single isomer, unassigned) [Compound 346, N^5-(tert-Butyl)-2-(3-chloro-4-fluorophenyl)-6-(trifluoromethyl)-6,7-dihydropyrazolo[1,5-a]pyrazine-3,5(4H)-dicarboxamide]: the IC50 at CK1δ (read-out: CK1δ IC50 range) and on CK1ε (read-out: CK1ε IC50 range) was 100 to 2000 nM throughout.
Take `CC(C)(C)NC(=O)N1Cc2c(C(N)=O)c(-c3ccc(F)c(Cl)c3)nn2[C@H]2COC[C@H]21` [Compound 352, (5aS,8aR)—N^5-(tert-Butyl)-2-(3-chloro-4-fluorophenyl)-5a,6,8,8a-tetrahydrofuro[3,4-e]pyrazolo[1,5-a]pyrazine-3,5(4H)-dicarboxamide]: the IC50 at CK1δ (read-out: CK1δ) was 18.1 nM; on CK1δ (read-out: CK1δ IC50 range), 10 to 100 nM; at CK1ε (read-out: CK1ε), 19.8 nM; at CK1ε (read-out: CK1ε IC50 range), 10 to 100 nM.
